Laboratory results taken from US20030124742A1, “Conjugates targeted to target receptors” (priority 2001, published 2003).
In brackets after ≈: the same amount, converted by molar mass. Like-named read-outs stand apart in the source and are kept apart here. Where no end group is shown, it is not given here.

B1: WL38 peptide (MVKDLSNPSRYL) (peptide)
peptide: MVKDLSNPSRYL
modifications: also: 125I-iodinated, residue not given here
notes: Synthetic HER-2-targeting peptide; also called TT38; 125I-WL38

Key:
[1] = tested on: human ovarian cancer cell line A-2780R tumor; experiment: In vivo efficacy, murine tumor model of subcutaneously implanted A-2780R; settings: 30 mg/kg
Experimental: Efficacy of mpPEG-WL00-DXR conjugate was also compared with DOXIL® in a murine tumor model generated by subcutaneously implanting human ovarian cancer cell line A-2780R. […] At day 21, the tumor growth inhibition in the animal treated with TM 1192-029-1 animal was 92%. The unconjugated DXR at 30 mg/kg gave 70% tumor growth inhibition.

[2] = Body distribution of DXR in mice bearing HuT 78 xenografts; format: in vivo, NIH III mice; settings: 2.5 mg/kg, 72 hours
Experimental: NIH III mice bearing HuT 78 xenografts were administered with conjugated DXR and free DXR at a dose of 2.5 mg/kg of DXR equivalent. After 72 hours, the mice were sacrificed and tissue samples were prepared for analysis for free or total DXR.
The total amount of DXR was determined after hydrolysis of free and conjugated DXR to generate aglycon. The amount of bound conjugate was computed as the difference between total and free DXR.

[3] = tested on: HER-2-negative fresh breast carcinoma specimens; experiment: EDR assay, HER-2-negative fresh breast carcinoma specimens; format: cell-based; settings: Homo sapiens, nine specimens
Experimental: (§1) Tumor cells were suspended in 0.12% soft agar in complete medium, and plated at different cell concentrations (typically, 3,000 cells for the cell lines and 15,000 cells per well for fresh tumor specimens) onto a 0.4% agarose underlayer in 24-well plates. Plating cells on agarose underlayers supports the proliferation only of the transformed cells, ensuring that the growth signal stems from the malignant component of the tumor.
(§2) 103 mg of 20 KD mpPEG-8PA-WL68-DXR (further referred to as WL-68-DXR) was dissolved in 10.3 ml of sterile PBS, aliquoted in plastic 1 ml tubes and kept at −70° C. until analysis. The doxorubicin equivalent for the WL68-DXR stock solution was 4.06 μg/ml. […] Positive controls were determined using at least 2 wells treated with an extremely high dose of cisplatin. […]
(§3) Cells were incubated with drugs under standard culture conditions for five days. […] The radioactivity trapped on the filters was counted with a Beckman scintillation counter. The fraction of surviving cells was determined by comparing ^3H-TdR incorporation in treated (experimental points) and untreated (negative control) wells. […]
(§4) A monoclonal antibody against HER-2 (clone 4E200) was purchased from Neomarkers, Inc. (Fremont, Calif.) and used at 1 μg/ml. Optimal working concentrations and incubation time for the HER-2 antibody have been determined in preliminary experiments. […]

[4] = tested on: HUT 78 tumor; experiment: In vivo efficacy, murine model of human cutaneous T-cell lymphoma (HUT 78)
Experimental: In vitro cytotoxicity against human T-cell lymphoma cell line HUT 78 and human ovarian cancer cell lines A-2780R, as well as in vitro screening on several fresh human tumor specimens from different types of cancer were evaluated. The in vivo efficacy was determined using murine models for human cutaneous T-cell lymphoma. Free doxorubicin and liposomal doxorubicin (DOXIL®) were used as controls for the experiments. The “WL00” moiety comprises the GFLG peptide (SEQ ID NO 1).
The efficacy of mpPEG-WL00-DXR in vivo was also evaluated. A single dose treatment of 30 mg/kg was used for the conjugate and DOXIL®, whereas 15 mg/kg (equivalent doxorubicin dose) was used for unconjugated DXR. […] The percent tumor growth inhibition at day 15 for CA 1043-136, TM 1192-029-1 and TM 1192-038 was 84, 79 and 84, respectively.
In addition, a DXR conjugate with 8.7% DXR loading (TM 1192-107-1) was evaluated in both human T-lymphoma cell line HUT 78 and ovarian cancer cell line A-2780R animal tumor model. […] It is also worth noting that the conjugate CA 1043-36 was very active after two years of storage as a lyophilized powder at 4° C.

[5] = tested on: human T lymphoma cell line HUT 78; experiment: In vitro cytotoxicity assay (MTS), HUT 78; format: cell-based; settings: HuT78, 48 h, DXR equivalent concentration, about two days incubation, read-out: IC50 against HUT 78
Experimental: (§5) On the day prior to starting the assay, cells were fed with fresh tissue culture medium (RPMI 1640+10% FCS for most cell lines, use other media as appropriate). A conjugate test solution was prepared in culture medium, with a concentration that is twice the final desired test concentration. Typically with doxorubicin (DXR) conjugates, a DXR equivalent concentration range of 100 μM down to 0.1 μM, using 1:2 serial dilutions is used. All concentrations are calculated and reported in terms of final DXR concentration (as opposed to total conjugate concentration).
(§6) The cell suspension is prepared at a concentration of 1-2×10^6 cells/Ml in culture medium. To each well of a 96-well, flat-bottom, microtiter plate (Falcon Microtest III assay plates, No. 3872) was added 50 μl of the cell suspension prepared above. A 50 μl of conjugate solution was added to each well of the assay plate. […]
(§7) The following blank and control wells were prepared: Plate Blank=100 μl of tissue culture medium only; cell control=50 μl cell suspension+50 μl tissue culture medium; and conjugate Blanks=50 μl 2× conjugate solution +50 μl tissue culture medium. […] Using a 96-well microplate reader, the absorbance of each well was measured at 490 nm. For each conjugate test concentration, the % cytotoxicity was calculated using the following formula: % Cytotoxicity=(1−[Abs. Conjugate Test Group/Abs. Cell Control])×100.

[6] = tested on: PC3 human prostate carcinoma cell line; experiment: EDR assay, PC3 (storage stability of stock solutions); format: cell-based
Experimental: (§8) The PC3 prostate carcinoma, as well as the MCF7-WT and SK-BR3 breast carcinoma cell lines were obtained from ATCC and maintained in RPMI 1640 (GibcoBRL, Grand Island, N.Y.) supplemented with 10% fetal bovine serum (FBS, Omega Scientific, Tarzana, Calif.), 100 IU/ml penicillin, 100 μg/ml streptomycin, and 2 mM L-glutamine (Irvine Scientific, Irvine, Calif.) (complete growth medium). Cells were harvested with 0.25% trypsin (GibcoBRL) after washing twice with phosphate-buffered saline (PBS, Irvine Scientific), then washed with complete medium, counted and checked for viability using trypan blue. Different passages of the cell line were tested for their resistance to WL68-DXR vs. native doxorubicin to evaluate the stability of WL68-DXR under storage at −70° C. […]
(§9) 103 mg of 20 KD mpPEG-8PA-WL68-DXR (further referred to as WL-68-DXR) was dissolved in 10.3 ml of sterile PBS, aliquoted in plastic 1 ml tubes and kept at −70° C. until analysis. […] Positive controls were determined using at least 2 wells treated with an extremely high dose of cisplatin. […]
as §3

[7] = tested on: SK-BR3 (HER-2 positive) breast carcinoma cell line; experiment: EDR assay, SK-BR3; format: cell-based; settings: Homo sapiens, SK-BR-3, 120 h; 5 days of incubation
Experimental: as §8, §9, §3

[8] = tested on: human ovarian cancer cell line A-2780R; experiment: In vitro cytotoxicity assay (MTS), A-2780R; format: cell-based; settings: DXR equivalent concentration, read-out: IC50 against A-2780R
Experimental: as §5, §6, §7

[9] = tested on: HER-2-positive fresh breast carcinoma specimens; experiment: EDR assay, HER-2-positive fresh breast carcinoma specimens; format: cell-based; settings: Homo sapiens, read-out: IC50, HER-2-positive group
Experimental: as §1, §2, §3, §4

[10] = tested on: MCF7-WT (HER-2 negative) breast carcinoma cell line; experiment: EDR assay, MCF7-WT; format: cell-based; settings: Homo sapiens, 120 h, 5 days of incubation
Experimental: as §8, §9, §3

[11] = target: T1, HER-2 receptor (human epidermal growth factor receptor-2) (human, UniProt P04626 23-1255); experiment: 125I-labelled peptide binding to SK-Br3 cells in suspension, cell-bound counts (Example 17)
T1 construct: whole, on cells; Presented on the HER-2-positive SK-Br3 cell line; Raji cells served as the negative control; also called c-erbB-2; neu
Experimental: WL38 was iodinated by using lodo-Gen method described in herein. Unbound ¹²⁵I was removed by ion-exchange chromatography with MP-1 resin, (BIO-RAD AG). SK-Br3 cells were removed from the flask bottom by the cell scraper, suspended, and centrifuged at 500×g for 1 min. The cell pellet was suspended in the binding buffer (50 mM PBS, 30 mM NaN₃, 0.5% BSA, pH 7.4). The cell suspension (100 μl) containing 500,000 cells were placed into a glass tube and incubated with ¹²⁵I-WL38 peptides at various concentrations. Unbound peptide was removed by centrifugation. Cells were dissolved in 1M NaOH, and applied for ¹²⁵I counting. Binding of the WL38 peptide to Raji cell which were used as a negative control was performed in a similar manner. Non-specific binding of the WL38 to A2870/R cells was determined on the background of unlabeled WL3 8 at concentration 100 μM.

Row | Molecule | tumor growth inhibition [1] [%] | DXR per gram in tumor, heart and muscle tissues [2] | IC50 ([3]; average, read-out: IC50 (average), HER-2-negative breast carcinomas) [µg/mL] | IC50 ([3]; read-out: IC50 (span over specimens), HER-2-negative breast carcinomas) [µg/mL] | deaths ([4]; 15 mg/kg dose) | survival of animals ([4]; HUT 78 tumor study, 30 mg/kg, study period 21 days) | mean tumor growth inhibition at day 15 ([4]; single dose 15 mg/kg (equivalent doxorubicin dose)) [%] | IC50 [5] [µM] | IC50 ([6]; 336 h, after two weeks of storage at −70° C., read-out: IC50, PC3, after freezing the stock solution) [µg/mL] | IC50 ([6]; read-out: IC50, PC3, before freezing the stock solution) [µg/mL] | IC50 [7] [µg/mL] | IC50 [8] [µM] | IC50 [9] [µg/mL] | IC50 [10] [µg/mL] | binding result [11]
1 | COc1cccc2c1C(=O)c1c(O)c3c(c(O)c1C2=O)C[C@@](O)(C(=O)CO)C[C@@H]3O[C@H]1C[C@H](N)[C@H](O)[C@H](C)O1 [unconjugated DXR, doxorubicin] | 70 | Approximately equal amounts | 0.025 ± 0.025 (≈ 0.046 µM) | 0.004 to 0.083 (≈ 0.00736 to 0.153 µM) | one death out of four animals | five out of five animals died within seven days | 12 | 2.1 | 0.022 (≈ 0.0405 µM) | 0.027 (≈ 0.0497 µM) | 0.03 ± 0.02 (≈ 0.0552 µM) | 14.2 | 0.019 ± 0.02 (≈ 0.035 µM) | 0.013 ± 0.004 (≈ 0.0239 µM) | 
2 | B1 |  |  |  |  |  |  |  |  |  |  |  |  |  |  | binds
